Results published in article PMC10706475 (International Journal of Molecular Sciences, 2023).
pKi: −log10 of the molar value. Values joined by “and” are separate entries in the source; they are usually repeats but may differ in a detail not shown here. Equal entries are not always repeated. Where two headings read alike, the source gives them in different places.

How the values were obtained:
[1] = tested on: organotypic rat hippocampal slices; format: cell-based
GluN1/GluN2A = GluN1/GluN2A (Rattus norvegicus, UniProt P35439+Q00959); assay: [3H] MK801 binding assay, transfected HEK293 cells, GluN1/GluN2A
GluN1/GluN2A, sequence (Q00959 23-1464, other chains not shown): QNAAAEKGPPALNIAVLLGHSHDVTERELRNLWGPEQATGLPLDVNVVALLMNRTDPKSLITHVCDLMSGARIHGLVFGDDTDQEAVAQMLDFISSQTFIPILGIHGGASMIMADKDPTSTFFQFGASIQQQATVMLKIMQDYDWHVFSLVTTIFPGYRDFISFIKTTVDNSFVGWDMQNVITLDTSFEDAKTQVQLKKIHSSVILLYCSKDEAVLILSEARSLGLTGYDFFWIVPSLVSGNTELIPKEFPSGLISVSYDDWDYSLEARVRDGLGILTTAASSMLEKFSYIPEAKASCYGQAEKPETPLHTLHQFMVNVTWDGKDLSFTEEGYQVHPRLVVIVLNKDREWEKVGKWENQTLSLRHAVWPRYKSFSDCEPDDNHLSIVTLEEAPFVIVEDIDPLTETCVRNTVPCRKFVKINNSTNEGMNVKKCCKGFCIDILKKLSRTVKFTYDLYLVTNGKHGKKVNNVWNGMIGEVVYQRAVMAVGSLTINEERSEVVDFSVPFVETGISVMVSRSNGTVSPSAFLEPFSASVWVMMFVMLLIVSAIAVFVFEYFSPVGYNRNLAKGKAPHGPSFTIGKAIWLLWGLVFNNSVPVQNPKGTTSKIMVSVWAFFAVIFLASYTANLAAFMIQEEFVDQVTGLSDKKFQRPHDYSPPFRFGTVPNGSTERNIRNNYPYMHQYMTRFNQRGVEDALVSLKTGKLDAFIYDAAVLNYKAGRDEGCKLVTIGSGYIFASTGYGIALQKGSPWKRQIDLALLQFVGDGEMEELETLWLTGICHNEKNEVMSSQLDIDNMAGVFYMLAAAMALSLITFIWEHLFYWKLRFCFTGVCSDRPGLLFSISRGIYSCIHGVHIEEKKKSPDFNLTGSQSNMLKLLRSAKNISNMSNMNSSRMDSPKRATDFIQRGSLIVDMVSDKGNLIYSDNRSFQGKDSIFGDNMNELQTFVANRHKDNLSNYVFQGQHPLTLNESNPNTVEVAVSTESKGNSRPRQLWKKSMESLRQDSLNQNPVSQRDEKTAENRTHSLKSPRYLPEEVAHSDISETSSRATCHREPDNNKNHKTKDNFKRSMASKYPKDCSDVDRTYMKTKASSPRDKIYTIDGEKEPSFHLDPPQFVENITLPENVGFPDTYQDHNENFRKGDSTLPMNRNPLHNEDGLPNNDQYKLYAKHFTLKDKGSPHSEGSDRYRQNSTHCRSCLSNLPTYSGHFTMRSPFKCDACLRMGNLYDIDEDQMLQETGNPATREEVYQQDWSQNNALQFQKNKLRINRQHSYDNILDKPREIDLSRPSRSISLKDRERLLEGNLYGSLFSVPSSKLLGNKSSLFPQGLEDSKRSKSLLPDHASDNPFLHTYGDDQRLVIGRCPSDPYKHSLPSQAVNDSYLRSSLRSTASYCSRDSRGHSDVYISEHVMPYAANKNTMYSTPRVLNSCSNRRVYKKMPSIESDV

[2] = tested on: tumor necrosis factor-alpha (TNF-α)
H2O2 = tested on: H2O2; set-up: species or system mice; details: mouse, in vivo
[3] = tested on: Myelin Basic Protein (MBP); set-up: species or system mice; details: mouse, in vivo
[4] = tested on: dendritic density and arborizations; format: in vivo, mice; details: coadministration of ZA-II-05 with […], vs […]-treated group
Sigma1 = biological target: T1, Sigma1 (Rattus norvegicus, UniProt Q9R0C9); assay: radioligand binding, Sigma1; details: [3H] Pentazocine (+), rat brain; read-out: Sigma 1 binding affinity (Ki)
T1 construct: Sigma1; Pentazocine (+); Rat; Brain; from tissue; host or cells: rat brain
T1 sequence (Q9R0C9 whole entry): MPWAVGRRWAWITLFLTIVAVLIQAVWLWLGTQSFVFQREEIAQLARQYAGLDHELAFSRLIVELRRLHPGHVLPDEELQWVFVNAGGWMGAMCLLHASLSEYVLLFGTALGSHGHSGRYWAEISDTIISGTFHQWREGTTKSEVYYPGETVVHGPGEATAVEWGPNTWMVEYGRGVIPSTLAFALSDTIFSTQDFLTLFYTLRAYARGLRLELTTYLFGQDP

µ-opioid receptors (MOR) = biological target: T2, µ-opioid receptors (MOR) (Homo sapiens, UniProt P35372); assay: radioligand binding, µ-opioid receptor; details: read-out: μ-Opiod Receptor Ki
T2 construct: expressed in transfected cells
T2 sequence (P35372 whole entry): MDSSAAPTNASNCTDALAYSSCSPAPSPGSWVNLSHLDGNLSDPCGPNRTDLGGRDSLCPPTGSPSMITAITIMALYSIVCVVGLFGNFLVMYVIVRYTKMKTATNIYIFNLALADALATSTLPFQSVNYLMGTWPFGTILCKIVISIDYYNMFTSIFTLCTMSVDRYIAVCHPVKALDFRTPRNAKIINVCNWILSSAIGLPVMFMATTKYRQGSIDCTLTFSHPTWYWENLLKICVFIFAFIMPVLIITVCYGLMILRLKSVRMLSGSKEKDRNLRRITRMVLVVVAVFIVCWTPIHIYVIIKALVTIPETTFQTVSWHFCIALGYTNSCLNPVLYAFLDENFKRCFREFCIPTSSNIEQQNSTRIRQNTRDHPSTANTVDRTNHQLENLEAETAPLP

Vitamin C = format: in vivo, mice
[5] = biological target: T3, Serotonin Transporter (SERT) (Homo sapiens, UniProt P31645); assay: radioligand binding, Serotonin Transporter; details: [3H] Citalopram, cloned human transporter; read-out: SERT binding affinity (Ki)
T3 construct: expressed in transfected cells

Non-protein thiol (NPT) = format: in vivo, mice
Sigma2 = biological target: T4, Sigma2 (Rattus norvegicus, UniProt Q5U3Y7); assay: radioligand binding, Sigma2
T4 construct: Sigma2; DTG; Rat; PC12; endogenous in cells; host or cells: PC12
T4 sequence (Q5U3Y7 whole entry): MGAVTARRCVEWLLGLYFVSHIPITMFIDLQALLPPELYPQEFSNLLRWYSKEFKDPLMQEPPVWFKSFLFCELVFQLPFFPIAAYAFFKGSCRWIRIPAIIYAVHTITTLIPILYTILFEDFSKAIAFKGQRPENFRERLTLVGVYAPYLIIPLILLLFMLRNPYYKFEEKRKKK

[6] = biological target: T5, Norepinephrine Transporter (NET) (Homo sapiens, UniProt P23975); assay: radioligand binding, Norepinephrine Transporter; details: [3H] Nisoxetine, cloned human transporter; read-out: NET binding affinity (Ki)
T5 construct: expressed in transfected cells
T5 sequence (P23975 whole entry): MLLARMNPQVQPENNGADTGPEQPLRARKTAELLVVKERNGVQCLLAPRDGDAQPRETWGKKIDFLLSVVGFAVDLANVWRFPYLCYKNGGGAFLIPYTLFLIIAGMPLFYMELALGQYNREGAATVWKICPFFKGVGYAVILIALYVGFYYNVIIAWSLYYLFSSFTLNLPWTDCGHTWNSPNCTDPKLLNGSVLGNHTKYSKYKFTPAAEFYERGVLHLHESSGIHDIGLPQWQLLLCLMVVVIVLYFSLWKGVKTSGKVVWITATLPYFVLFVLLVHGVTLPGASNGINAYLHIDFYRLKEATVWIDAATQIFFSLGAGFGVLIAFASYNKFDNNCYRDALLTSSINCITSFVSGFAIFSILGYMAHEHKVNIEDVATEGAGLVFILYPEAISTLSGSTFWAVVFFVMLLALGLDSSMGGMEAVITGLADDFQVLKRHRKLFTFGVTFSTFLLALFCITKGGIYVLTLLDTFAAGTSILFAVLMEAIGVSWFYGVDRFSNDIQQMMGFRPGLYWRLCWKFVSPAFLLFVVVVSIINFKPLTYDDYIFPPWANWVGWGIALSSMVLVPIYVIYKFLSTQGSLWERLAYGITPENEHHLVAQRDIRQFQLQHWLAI

[7] = biological target: T6, Dopamine Transporter (DAT) (Homo sapiens, UniProt Q01959); assay: radioligand binding, Dopamine Transporter; details: [3H] WIN35428, cloned human transporter
T6 construct: expressed in transfected cells
T6 sequence (Q01959 whole entry): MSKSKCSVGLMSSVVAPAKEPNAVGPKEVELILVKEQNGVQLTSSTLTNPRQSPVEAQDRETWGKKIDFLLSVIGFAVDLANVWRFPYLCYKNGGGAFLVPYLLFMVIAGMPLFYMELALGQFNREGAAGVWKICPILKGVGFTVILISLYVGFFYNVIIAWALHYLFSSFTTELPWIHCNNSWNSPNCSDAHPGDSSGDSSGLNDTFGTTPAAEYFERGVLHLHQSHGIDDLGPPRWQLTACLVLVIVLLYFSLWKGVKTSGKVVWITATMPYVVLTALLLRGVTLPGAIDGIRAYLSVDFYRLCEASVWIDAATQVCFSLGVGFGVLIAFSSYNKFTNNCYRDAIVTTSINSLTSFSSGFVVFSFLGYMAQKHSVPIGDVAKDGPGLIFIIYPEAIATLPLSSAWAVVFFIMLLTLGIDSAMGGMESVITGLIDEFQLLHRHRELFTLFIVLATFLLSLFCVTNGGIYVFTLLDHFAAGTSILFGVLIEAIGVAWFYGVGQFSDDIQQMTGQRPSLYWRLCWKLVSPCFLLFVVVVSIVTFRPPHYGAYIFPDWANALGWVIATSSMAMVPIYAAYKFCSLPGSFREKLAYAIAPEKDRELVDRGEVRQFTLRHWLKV

5-HT2A = biological target: T7, 5-HT2A (Homo sapiens, UniProt P28223); assay: radioligand binding, 5-HT2A; details: [3H] Ketanserin, cloned human receptor; read-out: 5HT2A binding affinity (Ki)
T7 construct: expressed in transfected cells
T7 sequence (P28223 whole entry): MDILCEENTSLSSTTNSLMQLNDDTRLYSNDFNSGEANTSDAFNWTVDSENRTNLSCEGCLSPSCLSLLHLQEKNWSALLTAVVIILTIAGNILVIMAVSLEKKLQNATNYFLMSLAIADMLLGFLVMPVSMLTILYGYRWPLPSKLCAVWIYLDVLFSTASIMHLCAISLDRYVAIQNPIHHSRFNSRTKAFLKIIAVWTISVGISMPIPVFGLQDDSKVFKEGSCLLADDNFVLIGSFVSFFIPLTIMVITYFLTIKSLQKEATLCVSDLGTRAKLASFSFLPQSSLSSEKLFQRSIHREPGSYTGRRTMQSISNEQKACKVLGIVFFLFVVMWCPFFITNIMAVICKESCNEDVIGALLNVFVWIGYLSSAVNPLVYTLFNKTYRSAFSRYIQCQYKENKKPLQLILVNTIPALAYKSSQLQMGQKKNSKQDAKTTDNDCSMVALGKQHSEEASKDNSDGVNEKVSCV

[8] = locomotion and motor coordination; format: in vivo, mice; details: treatment with ZA-II-05 in vanadium-induced neurotoxicity
IBA1 = format: in vivo, mice; details: ZA-II-05 treated groups vs […] group
κ-opioid receptors (KOR) = biological target: T8, κ-opioid receptors (KOR) (Rattus norvegicus, UniProt P34975); assay: biochemical; format: binding; details: read-out: κ-Opiod Receptor Ki
T8 construct: expressed in transfected cells

nitric oxide (NO) = format: in vivo, mice
NeuN = format: in vivo, mice
[9] = in vivo activity (i.p.), test not specified; details: 100 and 300 mg/kg (i.p.); test not named
Procedure: Sodium metavanadate (NaO3V) (Sigma, St. Louis, MO, USA) was utilized in this study. Novel NMDA-Receptor antagonist, ZA-II-05, is a bicyclic aryl cyclohexylamine, designed and synthesized in our lab, fully active at 100 and 300 mg/kg (i.p.). Several tests established the safety of the compound at dosages envisioned in this study.

D2 = biological target: T9, D2 (Homo sapiens, UniProt P14416); assay: radioligand binding, D2; details: [3H] N-Methylspiperone, cloned human receptor; read-out: D2 binding affinity (Ki)
T9 construct: expressed in transfected cells
T9 sequence (P14416 whole entry): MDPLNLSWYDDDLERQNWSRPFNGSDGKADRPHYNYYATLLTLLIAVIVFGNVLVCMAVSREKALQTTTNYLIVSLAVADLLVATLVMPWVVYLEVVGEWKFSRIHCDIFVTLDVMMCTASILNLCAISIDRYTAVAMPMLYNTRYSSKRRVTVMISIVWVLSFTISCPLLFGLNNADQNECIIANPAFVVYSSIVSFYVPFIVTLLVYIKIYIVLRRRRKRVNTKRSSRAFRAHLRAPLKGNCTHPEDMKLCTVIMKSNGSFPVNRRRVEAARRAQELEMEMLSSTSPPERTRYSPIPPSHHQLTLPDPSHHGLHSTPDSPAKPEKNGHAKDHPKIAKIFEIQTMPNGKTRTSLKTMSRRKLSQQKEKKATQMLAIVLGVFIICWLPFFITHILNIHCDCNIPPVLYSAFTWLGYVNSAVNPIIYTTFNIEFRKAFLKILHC

total thiol (PT) = format: in vivo, mice
Dopamine 1 (D1) = biological target: T10, Dopamine 1 (D1) (Homo sapiens, UniProt P21728); assay: radioligand binding, Dopamine 1 (D1); details: [3H] SCH23390, cloned human receptor; read-out: D1 binding affinity (Ki)
T10 construct: expressed in transfected cells
T10 sequence (P21728 whole entry): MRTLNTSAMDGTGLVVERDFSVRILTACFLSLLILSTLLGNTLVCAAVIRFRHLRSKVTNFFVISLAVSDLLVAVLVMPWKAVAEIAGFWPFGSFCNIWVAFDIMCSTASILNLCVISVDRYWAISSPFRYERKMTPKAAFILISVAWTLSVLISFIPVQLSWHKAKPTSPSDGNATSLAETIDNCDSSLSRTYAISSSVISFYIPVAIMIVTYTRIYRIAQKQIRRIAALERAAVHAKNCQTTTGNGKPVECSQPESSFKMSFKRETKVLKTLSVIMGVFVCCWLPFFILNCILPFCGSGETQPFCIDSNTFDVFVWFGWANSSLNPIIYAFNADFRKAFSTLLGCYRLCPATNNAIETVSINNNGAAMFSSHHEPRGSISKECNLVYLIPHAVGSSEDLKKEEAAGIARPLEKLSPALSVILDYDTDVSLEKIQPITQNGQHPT

GFAP = tested on: GFAP; set-up: species or system mice; details: mouse, in vivo
[10] = ZA-II-05 only 100 mg/kg i.p. every 72 h, one month, mouse brain

## Fc1ccc(C2(NCCCOC3CCCCO3)CC3CCC2C3)cc1 (stereo not shown) [ZA-II-05]
[1]
  cell death in vanadium-treated hippocampal slices (propidium iodide uptake): gradual reduction in cell death with increasing concentrations
  concentration of peak protection against vanadium-induced cell death: 100 µM
GluN1/GluN2A
  difference in affinity GluN1/GluN2A vs GluN1/GluN2B: No significant difference in affinity
[2]; ZA-II-05 only 100 mg/kg, all brain regions vs other groups
  TNF-α expression: upregulated the expression of TNF-α significantly (p < 0.05) in all the brain regions
[2]; […] + ZA-II-05-treated groups vs […] group
  cytoplasmic TNF-α expression: reduced cytoplasmic TNF-α expression compared to vanadium group
H2O2
  H2O2: 38.89±2.67 and 46.02±0.29
[3]
  expression of myelin content (MBP): significantly higher expression of myelin content and preservation of axonal dendritic integrity in the deep cortical layers
[4]
  dendritic length and arborization (Golgi stain): successfully reversed these dendritic changes induced by vanadium neurotoxicity
Sigma1
  pKi: < 5.00
µ-opioid receptors (MOR)
  pKi: 5.52
Vitamin C; [10]
  VIT. C: 0.17±0.02 nmoles/mg protein
Vitamin C; mouse, in vivo
  VIT. C: 0.20±0.04 nmoles/mg protein
[5]
  pKi: < 5.00
Non-protein thiol (NPT); [10]
  NPT: 26.98±5.89 nmoles/mg protein
Non-protein thiol (NPT); mouse, in vivo
  NPT: 29.06±3.80 nmoles/mg protein
Sigma2
  pKi: 8.26
[6]
  pKi: < 5.00
[7]
  pKi: 5.50
5-HT2A
  pKi: < 5.00
[8]
  locomotion and motor coordination: enhanced locomotion and improved motor coordination
IBA1
  microglial activation (IBA1): quiescence and recovery from activation
κ-opioid receptors (KOR)
  pKi: 5.91
Nitric oxide (NO); [10]
  NO: 0.34±0.03 μmole/mg protein
Nitric oxide (NO); mouse, in vivo
  NO: 0.32±0.03 μmole/mg protein
NeuN; ZA-II-05 only 100 mg/kg (ZA treatment only), CA1 and PFC
  NeuN viable cells / neuronal number: decreased viable cells in CA1 but increased neuronal number and vitality in the prefrontal cortex
NeuN; mouse, in vivo, 100 mg/kg
  NeuN cellular pathology, prefrontal cortex: significantly less cellular pathology in the prefrontal cortex compared to the vanadium-exposed groups
  NeuN, loss of apical dendrites of pyramidal cells, CA1: reversal effect relative to the vanadium-exposed group
  NeuN, neuronal degeneration of pyramidal cells, CA3: reversal effect with reduced cellular toxicity
[9]
  activity in vivo: fully active
D2
  pKi: < 5.00
Total thiol (PT); [10]
  THIOL: 28.62±6.72 nmoles/mg/protein
Total thiol (PT); mouse, in vivo
  THIOL: 25.06±4.68 nmoles/mg/protein
Dopamine 1 (D1)
  pKi: < 5.00
GFAP
  astrocyte reactivity (GFAP): attenuation of astrocyte reactivity
